# Measured values from patent US20250222045A1, “BIFIDOBACTERIUM LONGUM SUBSP. INFANTIS, MICROBIAL AGENT AND USE THEREOF” (GUANGZHOU JIYAN COSMETICS TECHNOLOGY CO., LTD., priority 2024, published 2025).
# Key:
# [1] = tested on: suckling pig skin; assay: Exfoliation on excised suckling pig skin (Franz cell), total protein of detached keratinocytes; details: 50 μL, 24 h, 32 °C
# Method: <1> Formulation of cleaning solution (0.1% Triton X-100): 0.1 mL of Triton X-100 was weighed and dissolved in 100 mL of PBS to formulate 0.1% Triton X-100 solution. <2> Formulation of sodium hydroxide solution (12 M): 4.8 g of sodium hydroxide solid was weighed, and added with deionized water to make up to 10 mL, and formulate 12 M sodium hydroxide solution. <1> After being thawed and cleaned, pig skin was fixed between a supply chamber and a receiving chamber of Franz cell, with stratum corneum of the skin facing the supply chamber, and a dermal side facing the receiving chamber. Into the receiving chamber, 7.0 mL of a receiving liquid was added. After suckling pig skin was stretched and fixed well, into the receiving chamber, 1.5 mL of the receiving liquid (PBS) was added through a sample collector, and air was exhausted, so as to make the dermis of the skin be in close contact with the receiving liquid. <2> Samples (as shown in TABLE 24) were added to the skin surface in the supply chamber, where 50 μL of the samples were added to the surface of the pig skin (a PBS buffer solution was added to the surface of the control group as blank control). The samples were evenly spread radially from a central part of the skin towards an edge, and an exposed area of the samples was 3.14 cm^2. Each sample had three parallel replicates. […] Keratinocytes in the cleaning solution were precipitated, supernatant was discarded, and precipitate was re-suspended with 0.5 mL of deionized water. <2> Into the re-suspended liquid, 25 μL of a sodium hydroxide (12 M) solution was added, the keratinocytes were lysed for 30 min in a boiling water bath, and 25 μL of concentrated hydrochloric acid (12 M) was added to neutralize lysis solution. <3> The total protein content was detected according to instructions of a BCA protein assay kit. […] The total protein content in the lysis solution was directly proportional to the quantity of detached keratinocytes. […] GraphPad Prism was applied for plotting, and results were expressed as Mean±SD. Comparison between the groups was statistically analyzed using t-test. […]
# [2] = tested on: CPD; assay: DNA damage repair on UVB-irradiated 3D epidermal skin model, CPD immunohistochemistry; type: cell-based; details: Filtrate 5%, Lysate 5%, Filtrate + lysate 5%, Retinol 0.1%, Bifida ferment lysate 5%; for CPD Positive cell Rate (%): BC 0.00%, NC 72.14%, smaller values are better; for CPD fluorescence intensity, Down-regulation Rate: vs NC
# Method: <1> According to test groups, models were transferred into 6-well plates (added with 0.9 mL of an EpiGrowth culture solution of corresponding groups in advance), and numbers of the test groups were marked on the 6-well plates.
# <2> UVB irradiation (a radiation dosage was 600 mJ/cm^2) was performed on the groups requiring UVB irradiation according to the test groups (as shown in TABLE 40). After the irradiation, a sample working solution was evenly distributed on surfaces of the models, and continued to be incubated in a CO2 incubator (37° C., 5% CO2) for 24 h.
# <3> After incubation was finished, test substances remaining on surfaces of the models were cleaned with sterile PBS, and residual liquid inside and outside the models was wiped off with a sterile cotton swab.
# The models for detection were fixed using 4% paraformaldehyde. After 24 h of fixation, immunohistochemical detection was performed, photographs were taken under a microscope and observed, and pictures were collected and analyzed.
# Inhibition rate/down-regulation rate (%)=(negative control group−sample)/negative control group×100%
# GraphPad Prism was applied for plotting, and results were expressed as Mean±SD. Comparison between the groups was statistically analyzed using t-test. Statistical analysis was two-tailed. P<0.05 is considered to have a significant difference, and P<0.01 is considered to have an extremely significant difference.
# (1) CPD: When a body is exposed to exogenous UV radiation, DNA damage may occur, and this damage may induce body aging. If such DNA damage is not repaired in time, symptoms such as aging of the body may occur.
# [3] = tested on: 3D epidermal skin model (EpiKuits®); assay: Epidermal atrophy on UVB-irradiated 3D epidermal skin model, tissue morphology H&E, sunburn cells; type: cell-based; details: Filtrate 5%, Lysate 5%, Filtrate + lysate 5%, Retinol 0.1%, Bifida ferment lysate 5%; for Sunburn cells: EpiKutis 3D epidermal model, UVB 600 mJ/cm^2, then 24 h, H&E, BC 0, NC 10, WY14643 50 μM
# Method: [table] <1> According to test groups, models were transferred into 6-well plates (added with 0.9 mL of an EpiGrowth culture solution of corresponding groups in advance), and numbers of the test groups were marked on the 6-well plates. <2> UVB irradiation (a radiation dosage was 600 mJ/cm^2) was performed on the groups requiring UVB irradiation according to the test groups (as shown in TABLE 40). […] <3> After incubation was finished, test substances remaining on surfaces of the models were cleaned with sterile PBS, and residual liquid inside and outside the models was wiped off with a sterile cotton swab. The models for detection of tissue morphology were fixed using 4% paraformaldehyde. After 24 h of fixation, H&E staining detection was performed, photographs were taken under a microscope and observed, and pictures were collected and analyzed. Inhibition rate/down-regulation rate (%)=(negative control group−sample)/negative control group×100% GraphPad Prism was applied for plotting, and results were expressed as Mean±SD. Comparison between the groups was statistically analyzed using t-test. Statistical analysis was two-tailed. P<0.05 is considered to have a significant difference, and P<0.01 is considered to have an extremely significant difference. (2) Epidermal atrophy: Tissue morphology is physiological structure analysis of appearance of tissues after HE staining. The ability of the test substance to resist UVB can be evaluated by analyzing thickness changes of epidermis and growth of four layers of cells on the surface after use of the test substance.
# [4] = tested on: collagen fiber; assay: Excised skin tissues, combined UVA and UVB irradiation: collagen fiber (Masson staining); details: ex vivo skin, 0.1%
# Method: (§1) Tissue treatment: Freshly obtained skin tissues were immersed into 75% alcohol to be cleaned for 30 s, and then cleaned in a sterile PBS buffer solution for three times. After the cleaning was finished, the skin was cut into tissue blocks of 24±2 mm^2, with the epidermis facing upwards and the dermis facing downwards, and put into culture moulds; and then the culture moulds were transferred into 6-well plates, with each well being added with 3.7 mL of the culture solution, and cultured in the CO2 incubator (37° C., 5% CO2), with the solution being changed every day.
# Dosing: After the excised skin tissues were cultured for 2 days, irradiation and dosing were started with reference to test groups and corresponding treatment conditions in the table. Irradiation dosages were UVA (30 J/cm^2) and UVB (50 mJ/cm^2). The irradiation was continuously performed for 4 days. […]
# Detection of collagen fiber: the skin tissues having undergone the dosing were fixed using 4% paraformaldehyde. […] Slicing result was recovered, photographed using a microscope, and analyzed using Image-Pro Plus image processing software. […]
# (§2) Statistical analysis of results: GraphPad Prism was applied for plotting, and results were expressed as Mean±SD. Comparison between the groups was statistically analyzed using t-test. […]
# [5] = tested on: hyaluronic acid; assay: Excised skin tissues, combined UVA and UVB irradiation: hyaluronic acid (immunofluorescence); details: ex vivo skin, 0.1%
# Method: as §1
# (§3) Dosing: After the excised skin tissues were cultured for 2 days, irradiation and dosing were started with reference to test groups and corresponding treatment conditions in the table. Irradiation dosages were UVA (30 J/cm^2) and UVB (50 mJ/cm^2). The irradiation was continuously performed for 4 days. After each time of irradiation was completed, the culture solution was replaced with a fresh culture solution, and a dosing treatment was performed. The positive control (VC+VE) was dosed below a liquid surface, and the test sample was does on a surface, with each group being in triplicate. […]
# as §2
# [6] = tested on: elastin; assay: Excised skin tissues, combined UVA and UVB irradiation: elastin (Victoria Blue staining); details: ex vivo skin, 0.1%
# Method: as §1, §3, §2
# [7] = tested on: type III collagen; assay: Excised skin tissues, combined UVA and UVB irradiation: type III collagen (IHC); details: ex vivo skin, 0.1%
# Method: as §1, §3, §2
# [8] = tested on: type IV collagen; assay: Excised skin tissues, combined UVA and UVB irradiation: type IV collagen (IHC); details: ex vivo skin, 0.1%
# Method: as §1, §3, §2
# [9] = tested on: type XVII collagen; assay: Excised skin tissues, combined UVA and UVB irradiation: type XVII collagen (IHC); details: ex vivo skin, 0.1%
# Method: as §1, §3, §2
# [10] = BC 0.326, Filtrate 3%, Mandelic acid 5%, Salicylic acid 2%
# [11] = 30 J/cm^2 UVA + 50 mJ/cm^2 UVB, IHC
structure (smiles),measurement,setting,value
O=C(O)C(O)c1ccccc1 (centres unmarked) [Mandelic acid],Protein Concentration Mean (exfoliated keratinocytes),[1]; [10],0.448 mg/mL
CC1=C(/C=C/C(C)=C/C=C/C(C)=C/CO)C(C)(C)CCC1 [Retinol],CPD Positive cell Rate (%),"[2]; EpiKutis 3D epidermal model, UVB 600 mJ/cm^2, then 24 h, PC WY14643 50 μM",58.31%
same,CPD Positive cell Rate (%),"[2]; EpiKutis 3D epidermal model, UVB 600 mJ/cm^2, then 24 h, PC WY14643 50 μM, listed as retinol",58.31%
same,"CPD fluorescence intensity, IOD Mean","[2]; EpiKutis 3D epidermal model, UVB 600 mJ/cm^2, then 24 h, NC 227349.69, PC WY14643 50 μM",20503.43
same,"CPD fluorescence intensity, Down-regulation Rate",[2],90.98%
same,"CPD fluorescence intensity, Down-regulation Rate",[2]; listed as retinol,90.98%
same,Sunburn cells,[3],0
same,"Sunburn cells, Inhibition Rate",[3]; vs NC,100%
same,Collagen fiber Relative Area Mean,"[4]; 30 J/cm^2 UVA + 50 mJ/cm^2 UVB, Masson staining",0.96
same,Collagen fiber Increase Rate,"[4]; UVA + UVB, vs negative control",50.00%
same,Hyaluronic acid Relative IOD Mean,"[5]; 30 J/cm^2 UVA + 50 mJ/cm^2 UVB, IF",0.69
same,Hyaluronic acid Increase Rate,"[5]; UVA + UVB, vs negative control",56.82%
same,Elastin Relative IOD Mean,"[6]; 30 J/cm^2 UVA + 50 mJ/cm^2 UVB, Victoria staining",1.19
same,Elastin Increase Rate,"[6]; UVA + UVB, vs negative control",260.61%
same,Type III collagen Relative IOD Mean,[7]; [11],0.76
same,Type III collagen Increase Rate,"[7]; UVA + UVB, vs negative control",28.81%
same,Type IV collagen Relative IOD/area Mean,[8]; [11],0.76
same,Type IV collagen Increase Rate,"[8]; UVA + UVB, vs negative control",26.67%
same,Type XVII collagen Relative IOD Mean,[9]; [11],0.69
same,Type XVII collagen Increase Rate,"[9]; UVA + UVB, vs negative control",176.00%
Cc1cccc(Nc2cc(Cl)nc(SCC(=O)O)n2)c1C [WY14643],Sunburn cells,[3],3
O=C(O)c1ccccc1O [salicylic acid],Protein Concentration Mean (exfoliated keratinocytes),[1]; [10],0.347 mg/mL
same,Protein Concentration Mean (exfoliated keratinocytes),"[1]; BC 0.326, PC 10% salicylic acid",0.555 mg/mL
